Where only a bound is given, the exact number is not on record here.

The text below walks through data of patent US9611263B2, “Compounds that modulate intracellular calcium” (CALCIMEDICA, INC., priority 2013, dated 2017).

For one test, the target named is STIM1 and Orai1 (Homo sapiens, UniProt Q96D31). To be noted: HEK293 cells co-expressing STIM1 and Orai1; cited from earlier work.
Test [1] relates to Jurkat cells. Particulars: cited from earlier work.
For test [2], the system named is Jurkat cells. Particulars: cited from earlier work. This is another data set of the same source.
A further test concerns RBL-2H3 cells. Kind of test: Fluorescence-based assay of store-operated calcium entry in RBL-2H3 cells. The test is classed as cell-based, rat. To be noted: thapsigargin; 50% inhibition of Upslope; read-out: RBL-2H3 (IC50, μmol). Summed up: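 Fluo-4-loaded RBL-2H3 cells in Ca2+-free HBSS got compound for 5 min at RT, then thapsigargin (1 μM final, from 5.5× stock) for 25 min. Calcium (1 mM final, from 12× stock) was then added and fluorescence read by FLIPR; Upslope = signal 7 s after addition minus baseline, IC50 = 50% Upslope inhibition.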

The next test concerns the target T1, Orai1/STIM1 (Homo sapiens, UniProt Q96D31).
T1 construct: expressed in transfected cells
Kind of test: Fluorescence-based assay of store-operated calcium entry in Orai1/STIM1 stable cells. To be noted: HEK-293 cells stably expressing human STIM1 and Orai1; 50% inhibition of Peak-Basal fluorescence signal; read-out: Orai1/STIM1 (IC50, μmol). The test is classed as cell-based. The gist of the method:
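HEK-293 cells stably co-expressing human STIM1 and Orai1, loaded with 1.5 μM fluo-4-AM for 1 h at RT. Compounds were preincubated 30 min at RT in Ca²⁺-free HBSS, then entry was triggered with a 10× CaCl2 (10 mM) addition and read on FLIPR. IC50 is 50% inhibition of peak minus basal fluorescence.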

T1 sequence (Q96D31 whole entry): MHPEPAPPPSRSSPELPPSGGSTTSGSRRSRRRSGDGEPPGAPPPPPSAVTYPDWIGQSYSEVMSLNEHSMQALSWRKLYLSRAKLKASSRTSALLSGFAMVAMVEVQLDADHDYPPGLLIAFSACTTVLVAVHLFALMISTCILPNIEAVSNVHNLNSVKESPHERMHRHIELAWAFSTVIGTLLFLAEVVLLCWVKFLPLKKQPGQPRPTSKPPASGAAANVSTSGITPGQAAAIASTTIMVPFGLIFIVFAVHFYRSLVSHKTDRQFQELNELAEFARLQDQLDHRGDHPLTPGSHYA
Chain of STIM1 and Orai1 (Q96D31 whole entry, species assumed): as the sequence (Q96D31 whole entry) above

For `NCCOB(c1ccccc1)c1ccccc1` [2-aminoethoxydiphenylborate], at STIM1 and Orai1, the “store-operated Ca2+ entry” value is “completely blocked”. `Cc1nnsc1C(=O)Nc1ccc(-n2nc(C(F)(F)F)cc2C(F)(F)F)cc1` [BTP-2]: the proliferation result in the test on Jurkat cells [1] is on record as “inhibits”. The SOCE entry with Jurkat cells [2] is “inhibits”. Regarding “N-(5-(3-ethyl-1-(thiazol-2-yl)-1H-pyrazol-4-yl)pyrazin-2-yl)-2,3,6-trifluorobenzamide [Example 39]”, the IC50 in the test on RBL-2H3 cells was under 0.6 µM; on Orai1/STIM1, 0.6 to 1.2 µM. The corresponding values for “N-(5-(3-ethyl-1-(thiazol-2-yl)-1H-pyrazol-4-yl)pyrazin-2-yl)-2,4,6-trifluorobenzamide [Example 40]” are under 0.6 µM and under 0.6 µM.
